Assay results reported in US20120004199A1, “SCAFFOLDS” (priority 2009, published 2012).

Experiments:
NF-κB/p65 = NF-κB/p65 activation immunolabelling in 2D fibroblast cultures stimulated with LPS or TNF-α; format: cell-based, human; conditions: for effect on LPS induced NF-κB activation / effect on TNF induced NF-κB activation: 10^−4 and 10^−3M; for effect on LPS induced NF-κB activation: LPS 100 ng/mL; for effect on TNF induced NF-κB activation: TNF-α 1000 U/mL
Protocol: LPS from E. coli serotype O111:B4 (Sigma-Aldrich) at 100 ng/mL or TNF-α (Sigma-Aldrich) at 1000 U/mL was used as a positive control for activation of NF-κB in fibroblasts. In preliminary experiments, Ibuprofen (10^−3 and 10^−4 M, sodium salt and isomer mixture; Sigma-Aldrich, UK) was used to downregulate NF-κB activation. Then the 10% Ibuprofen loaded PLGA scaffolds (75/25, 50/50 and a 1:1 blend of these two) were examined. Negative controls were produced by incubating cells in normal DMEM. All experiments were performed in triplicate.
Following the Ibuprofen treatments, monolayers were washed in PBS and the cells were fixed in 10% formalin (500 μL per well) for 30 minutes. Cell monolayers were washed a further three times in PBS, prior to cell permeabilisation with 0.1% Triton X100 for 20 minutes. Subsequently, cells were washed three times with PBS. Unreactive binding sites were blocked by adding a 5% dried milk powder solution to each well for 1 hour. A further three washes in PBS were performed prior to incubation with the first antibody solution. The first antibody (rabbit polyclonal antihuman IgG NF-κB p65 C-20, Santa Cruz Biotechnology Inc., CA) was added at a concentration of 1:100 in 1% PBS-dried milk powder. Cells were incubated in the antibody solution at 4° C. for 18 hours. The cells were washed three more times in PBS. Afterwards, cells were incubated with biotinylated goat anti-rabbit (1:1000) (Vector Laboratories, CA) in 1% PBS-milk powder. The cells were then washed a further three times in PBS. Streptavidin-FITC (Vector Laboratories, CA) conjugate was then added to the wells at a concentration of 1:100 in PBS. A further three washes in PBS were performed. After this time, the fluorescent staining were visualised using an AXON image express system (Axon Instruments/Molecular Devices, Union City, Calif.). Briefly, fluorescence micrographs of immunolabelled samples were taken using epifluorescent illumination at λex 495 nm λem 515 nm (for FITC visualisation); λex 358 nm λem 461 nm (for DAPI visualisation). DAPI fluorescence was used to identify nuclear position. The boundary between nucleus and cytoplasm was delimited by analysis software (ImageXpress Console 1.0) using DAPI micrographs in a sample of at least 100 cellular counts per visual field. Within the defined region, the intensity of FITC (NF-κB/p65) labelling was used to calculate activation for each micrograph and sample. […] The analysis of the micrographs was done in triplicate.

human fibroblast (HDF) = test: MTT-ESTA assay of cell metabolic activity, 2D HDF cultures; format: cell-based; conditions: for % Viability: 24 h exposure, HDF; for concentration showing a cytotoxic response: fibroblast viability
Protocol: (§1) Normal human fibroblasts were isolated and cultured as described previously (Ralston et al., 1997). […] Keratinocytes were cultured in Dulbecco's modified Eagle's medium (DMEM) supplemented with 10% (v/v) foetal calf serum (FCS), 2 mM glutamine, 0.625 μg/ml amphotericin B, 100 IU/ml penicillin and 100 μg/ml streptomycin.

[1] = as above; format: cell-based, human; conditions: human, normal human dermal fibroblasts (HDF), 2D monolayer culture, 24 h exposure, HDF
Protocol: as §1

Compound | effect on LPS induced NF-κB activation (NF-κB/p65) | effect on TNF induced NF-κB activation (NF-κB/p65) | % Viability (human fibroblast (HDF); Treatment 10^−2) [%] | % Viability (human fibroblast (HDF); Treatment 10^−3) [%] | % Viability (human fibroblast (HDF); Treatment 10^−4) [%] | % Viability (human fibroblast (HDF); Treatment 10^−5) [%] | % Viability (human fibroblast (HDF); Treatment 10^−6) [%] | concentration showing a cytotoxic response (human fibroblast (HDF)) | viability at 24 h ([1]; Treatment 10^−3) [%] | viability at 24 h ([1]; Treatment 10^−4) [%] | viability at 24 h ([1]; Treatment 10^−5) [%] | viability at 24 h ([1]; Treatment 10^−6) [%] | activation of NF-κB (NF-κB/p65; stimulus alone, LPS 100 ng/mL or TNF-α 1000 U/mL) [%]
CC(C)Cc1ccc(C(C)C(=O)O)cc1 (racemic) [Ibuprofen isomer mixture, 2-(4-isobutylphenyl)propionic acid] | significantly reducing the response | significantly reducing the response | 7.20 | 101.11 | 108.56 | 111.80 | 109.43 | 10^−2 M | – | – | – | – | –
CC(C)Cc1ccc(C(C)C(=O)[O-])cc1.[Na+] (centres unmarked) [Ibuprofen Sodium Salt] | significantly reducing the response | significantly reducing the response | 38.25 | – | – | – | – | 10^−2 M | 90.3 | 98.2 | 100 | 102 | –
TNF-α | – | – | – | – | – | – | – | – | – | – | – | – | 80
